Structures can show the parent of a compound that is named as a salt.
Target: USP7 (Homo sapiens, UniProt Q93009)
Experiment: biochemical
Parameters: Ub-AMC hydrolysis by recombinant USP7 (20 nM), 30 min pre-incubation, fluorescence read-out
Details: inhibitor

Chain of USP7 (Q93009 whole entry): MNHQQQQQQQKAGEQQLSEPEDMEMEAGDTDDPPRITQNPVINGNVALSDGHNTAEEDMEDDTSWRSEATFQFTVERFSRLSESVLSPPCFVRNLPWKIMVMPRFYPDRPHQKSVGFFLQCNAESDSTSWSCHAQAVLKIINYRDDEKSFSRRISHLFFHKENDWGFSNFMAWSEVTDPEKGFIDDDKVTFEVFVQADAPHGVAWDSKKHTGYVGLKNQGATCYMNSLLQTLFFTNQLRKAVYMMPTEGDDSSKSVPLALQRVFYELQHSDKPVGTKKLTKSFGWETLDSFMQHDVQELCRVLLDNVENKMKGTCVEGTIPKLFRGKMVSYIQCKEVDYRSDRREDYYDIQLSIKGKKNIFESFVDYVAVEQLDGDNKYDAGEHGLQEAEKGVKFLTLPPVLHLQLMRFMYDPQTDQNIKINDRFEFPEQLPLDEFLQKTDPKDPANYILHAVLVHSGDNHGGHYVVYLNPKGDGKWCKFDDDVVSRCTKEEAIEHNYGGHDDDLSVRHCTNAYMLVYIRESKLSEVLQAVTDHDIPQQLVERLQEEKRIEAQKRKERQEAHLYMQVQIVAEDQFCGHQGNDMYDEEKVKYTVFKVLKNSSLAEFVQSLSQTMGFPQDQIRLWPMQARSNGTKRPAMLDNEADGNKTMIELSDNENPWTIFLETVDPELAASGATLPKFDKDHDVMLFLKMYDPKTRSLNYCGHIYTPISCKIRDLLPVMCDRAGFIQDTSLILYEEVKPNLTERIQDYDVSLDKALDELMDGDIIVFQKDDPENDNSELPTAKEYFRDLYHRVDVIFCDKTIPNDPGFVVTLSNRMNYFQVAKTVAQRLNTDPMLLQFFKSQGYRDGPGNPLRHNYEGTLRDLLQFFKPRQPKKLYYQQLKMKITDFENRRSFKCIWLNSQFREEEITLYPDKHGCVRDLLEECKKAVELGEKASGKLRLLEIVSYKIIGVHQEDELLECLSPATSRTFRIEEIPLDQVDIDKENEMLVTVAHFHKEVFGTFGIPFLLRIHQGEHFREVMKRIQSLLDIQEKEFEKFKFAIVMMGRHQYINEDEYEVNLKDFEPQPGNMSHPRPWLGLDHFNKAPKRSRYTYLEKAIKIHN

Compound | % Inhibition at 50 μM
CNC(=O)Oc1ccc2c(c1)[C@]1(C)CCN(C)[C@@H]1N2C [Physostigmine sulfate] | <5%

Same assay, conditions: read-out: % Inhibition at 50 μM

Compound | inhibition at 50 µM
CO[C@H]1C[C@H](O[C@H]2[C@H](C)[C@@H](O[C@@H]3O[C@H](C)C[C@H](N(C)C)[C@H]3OC(C)=O)[C@@H](C)C[C@@]3(CO3)C(=O)[C@H](C)[C@@H](OC(C)=O)[C@@H](C)[C@@H](C)OC(=O)[C@@H]2C)O[C@@H](C)[C@@H]1OC(C)=O [Troleandomycin] | < 5%
C[C@H]1[C@H](C)CC[C@]2(C(=O)O)CC[C@]3(C)C(=CC[C@@H]4[C@@]5(C)C[C@@H](O)[C@H](O)[C@@](C)(CO)[C@@H]5[C@H](O)C[C@]43C)[C@H]12 [Madecassic acid] | < 5%
CCCCc1oc2ccccc2c1C(=O)c1cc(I)c(OCCN(CC)CC)c(I)c1 [Amiodarone] | < 5%
CCC[C@@H]1C[C@@H](C(=O)N[C@@H]([C@H]2O[C@H](SC)[C@H](O)[C@@H](O)[C@H]2O)[C@H](C)Cl)N(C)C1 [Clindamycin HCl] | < 5%
CC(C)(O)c1ccccc1CC[C@@H](SCC1(CC(=O)O)CC1)c1cccc(/C=C/c2ccc3ccc(Cl)cc3n2)c1 [Montelukast] | 76.3%
CN(C)C(=O)Oc1cccc([N+](C)(C)C)c1 [Neostigmine Br] | < 5%
COc1ccc2[nH]cc(CCNC(C)=O)c2c1 [Melatonin] | < 5%
CCC(=O)O[C@]1(C(=O)CCl)[C@@H](C)C[C@H]2[C@@H]3CCC4=CC(=O)C=C[C@]4(C)[C@@]3(F)[C@@H](O)C[C@@]21C [Clobetasol propionate] | 42.3%
C[C@H](N)[C@H](O)c1ccccc1 [Phenylpropanolamine] | < 5%
C[C@]12CC[C@@H]3c4ccc(O)cc4C[C@@H](CCCCCCCCC[S+]([O-])CCCC(F)(F)C(F)(F)F)[C@H]3[C@@H]1CC[C@@H]2O (stereo partly drawn) [Fulvestrant] | < 5%
COc1ccc(C(=O)NCc2cccnc2)cc1C(=O)NCc1cccnc1 [Picotamide] | < 5%
Nc1cc(-c2ccncc2)c[nH]c1=O [Amrinone] | < 5%
CSc1ccc2c(c1)N(CCC1CCCCN1C)c1ccccc1S2 (stereo not drawn) [Thioridazine HCl] | < 5%
COc1ccccc1Oc1c(NS(=O)(=O)c2ccc(C(C)(C)C)cc2)nc(-c2ncccn2)nc1OCCO [Bosentan] | < 5%
CC(C)OC(=O)CCC/C=C\C[C@@H]1[C@@H](CC[C@@H](O)CCc2ccccc2)[C@H](O)C[C@@H]1O [Latanoprost] | 6.9%
O=P(O)(O)C(O)(Cn1ccnc1)P(=O)(O)O [Zoledronic acid] | < 5%
C[C@H](N[C@@H](CCc1ccccc1)C(=O)O)C(=O)N1CCC[C@H]1C(=O)O [Enalaprilat] | < 5%
Cn1ccnc1S [Methimazole] | < 5%
CC(C)CN(C[C@@H](O)[C@H](Cc1ccccc1)NC(=O)O[C@H]1CCOC1)S(=O)(=O)c1ccc(N)cc1 [Amprenavir] | < 5%
Cc1ncc([N+](=O)[O-])n1CCO [Metronidazole] | < 5%
COC(=O)[C@H](c1ccccc1Cl)N1CCc2sccc2C1 [Clopidogrel sulfate] | < 5%
C[C@H]1O[C@@H](n2cc(F)c(=O)[nH]c2=O)[C@H](O)[C@@H]1O [Doxifluridine] | < 5%
Cc1cccc(C)c1NC1=NCCCS1 [Xylazine HCl] | < 5%
CC1(C)CCC2(C(=O)O)C(O)CC3(C)C(=CCC4C5(C)CC(O)C(O)C(C)(CO)C5CCC43C)C2C1 (stereo not drawn) [Polygalacic acid] | < 5%
Clc1ccc(COC(Cn2ccnc2)c2ccc(Cl)cc2Cl)c(Cl)c1 (stereo not drawn) [Miconazole] | < 5%
CN1CCN(CCCN2c3ccccc3Sc3ccc(C(F)(F)F)cc32)CC1 [Trifluoperazine 2HCl] | < 5%

Compound | inhibition at 50 µM
Cc1ccc(/C(=C\CN2CCCC2)c2ccccn2)cc1 [Trans-triprolidine HCl] | < 5%
Cc1cnc(NC(=O)C2=C(O)c3ccccc3S(=O)(=O)N2C)s1 [Meloxicam] | < 5%
CCCCC[C@H](O)/C=C/[C@H]1[C@H](O)CC(=O)[C@@H]1C/C=C\CCCC(=O)O [Dinoprostone] | 6.5%
NC(=O)OCC(COC(N)=O)c1ccccc1 [Felbamate] | < 5%
COc1ccc(C(=O)N2CCCC2=O)cc1 [Aniracetam] | < 5%
C[C@]12C[C@H](O)[C@H]3[C@@H](CCC4=CC(=O)CC[C@@]43C)[C@@H]1CC[C@@H]2C(=O)CO [Corticosterone] | < 5%
N[C@@H]1C[C@H]1c1ccccc1 (racemic) [Tranylcypromine] | < 5%
NCCCC[C@H](N[C@@H](CCc1ccccc1)C(=O)O)C(=O)N1CCC[C@H]1C(=O)O [Lisinopril] | 30.5%
O=C(O)/C=C/c1ccc(Cn2ccnc2)cc1 [Ozagrel] | < 5%
Cc1ccc(N(CC2=NCCN2)c2cccc(O)c2)cc1 [Phentolamine HCl] | < 5%
CCN[C@H]1C[C@H](C)S(=O)(=O)c2sc(S(N)(=O)=O)cc21 [Dorzolamide] | < 5%
OCCOCCN1CCN(C2=Nc3ccccc3Sc3ccccc32)CC1 [Quetiapine fumarate] | < 5%
Cc1nc2c([nH]1)c(=O)n(C)c(=O)n2Cc1ccco1 [Furafylline] | < 5%
COCCOC(=O)C1=C(C)NC(C)=C(C(=O)OC/C=C/c2ccccc2)C1c1cccc([N+](=O)[O-])c1 (stereo not drawn) [Cilnidipine] | < 5%
CCC(C)(C)C(=O)O[C@H]1C[C@@H](C)C=C2C=C[C@H](C)[C@H](CC[C@@H]3C[C@@H](O)CC(=O)O3)[C@H]21 [Simvastatin] | < 5%
Nc1c(Br)cc(Br)cc1CN[C@H]1CC[C@H](O)CC1 [Ambroxol] | < 5%
c1ccc2c(CC3=NCCN3)cccc2c1 [Naphazoline HCl] | < 5%
CCN(CC)CCCC(C)Nc1c2ccc(Cl)cc2nc2ccc(OC)cc12 (stereo not drawn) [Quinacrine 2HCl dihydrate] | < 5%
CN(C)CCOC(c1ccccc1)c1ccccc1 [Diphenhydramine HCl] | < 5%
Cc1cnc(C(=O)O)c[n+]1[O-] [Acipimox] | < 5%
N[C@@H](Cc1ccc(O)c(O)c1)C(=O)O [Levodopa] | < 5%
CC/C(=C(/CC)c1ccc(O)cc1)c1ccc(O)cc1 [Diethylstilbestrol] | 30.6%
CC[C@@H]1C(=O)OC[C@@H]1Cc1cncn1C [Pilocarpine HCl] | < 5%
O=C1c2c(O)ccc(O)c2C(=O)c2c(NCCNCCO)ccc(NCCNCCO)c21 [Mitoxantrone 2HCl] | < 5%
CN(C)CCc1c[nH]c2ccc(C[C@H]3COC(=O)N3)cc12 [zolmitriptan] | < 5%
CCCCNC(=O)NS(=O)(=O)c1ccc(C)cc1 [Tolbutamide] | < 5%

Compound | inhibition at 50 µM
O=C(c1ccc(OCCN2CCCCC2)cc1)c1c(-c2ccc(O)cc2)sc2cc(O)ccc12 [Raloxifene HCl] | < 5%
CC(=O)O[C@]1(C(C)=O)CC[C@H]2[C@@H]3C=C(Cl)C4=CC(=O)[C@@H]5C[C@@H]5[C@]4(C)[C@H]3CC[C@@]21C [Cyproterone acetate] | 28.6%
COc1c(C)c2c(c(O)c1C/C=C(\C)CCC(=O)O)C(=O)OC2 [Mycophenolic acid] | < 5%
O=C1CCc2ccc(OCCCCN3CCN(c4cccc(Cl)c4Cl)CC3)cc2N1 [Aripiprazole] | < 5%
CN(C)CC/C=C1/c2ccccc2COc2ccc(CC(=O)O)cc21 [Olopatadine] | < 5%
CCN(CC)CCNC(=O)c1ccc(N)cc1 [Procainamide] | < 5%
O=C(CCCCCCC(=O)Nc1ccccc1)NO [Vorinostat] | < 5%
O=C(O)c1cc(-c2ccc(F)cc2F)ccc1O [Diflunisal] | 31.5%
CC[C@]1(O)C[C@H]2CN(CCc3c([nH]c4ccccc34)[C@@](C(=O)OC)(c3cc4c(cc3OC)N(C=O)[C@H]3[C@@](O)(C(=O)OC)[C@H](OC(C)=O)[C@]5(CC)C=CCN6CC[C@]43[C@@H]65)C2)C1 [Vincristine sulfate] | < 5%
CN(C)c1ccc(O)c2c1C[C@H]1C[C@H]3[C@H](N(C)C)C(O)=C(C(N)=O)C(=O)[C@@]3(O)C(O)=C1C2=O [Minocycline HCl] | < 5%
CC(C)(CO)[C@@H](O)C(=O)NCCC(=O)O [Pantothenic acid] | < 5%
C/N=C(/NC#N)NCCSCc1csc(NC(=N)N)n1 [Tiotidine] | 11.6%
OCc1cc(C(O)CNCCCCCCOCCCCc2ccccc2)ccc1O (stereo not drawn) [Salmeterol] | < 5%
O=C(NCCNCC(O)COc1ccc(O)cc1)N1CCOCC1 (stereo not drawn) [Xamoterol hemifumarate] | < 5%
CN(C/C=C/C#CC(C)(C)C)Cc1cccc2ccccc12 [Terbinafine HCl] | 8.6%
COC(=O)Nc1nc2cc(C(=O)c3ccccc3)ccc2[nH]1 [Mebendazol] | < 5%
CC1(C)C[C@@H]1C(=O)N/C(=C\CCCCSC[C@H](N)C(=O)O)C(=O)O [Cilastatin] | < 5%
O=C(NCC1CCCCN1)c1cc(OCC(F)(F)F)ccc1OCC(F)(F)F (stereo not drawn) [Flecainide] | < 5%
COc1ccccc1O [Guaiacol] | < 5%
Cc1[nH]c(=O)c(C#N)cc1-c1ccncc1 [Milrinone] | < 5%
Oc1ccc2c3c1O[C@H]1c4[nH]c5ccccc5c4C[C@@]4(O)[C@@H](C2)N(CC2CC2)CC[C@]314 [Naltrindole HCl] | < 5%
CN1[C@@H]2CC[C@H]1C[C@@H](OC(=O)C(CO)c1ccccc1)C2 (stereo partly drawn) [Atropine sulfate] | < 5%
COC(=O)[C@]1(C)CC[C@]2(C)CC[C@]3(C)C4=CC=C5C(=CC(=O)C(O)=C5C)[C@]4(C)CC[C@@]3(C)[C@@H]2C1 [Pristimerin] | 39.1%
CN1CCN(CC(=O)N2c3ccccc3C(=O)Nc3cccnc32)CC1 [Pirenzepine 2HCl] | < 5%
CC(C)NCC(O)COc1cccc2[nH]ccc12 (stereo not drawn) [Pindolol] | < 5%

From article PMC5363571 (Oncotarget, 2016)
